# BindingDB's records for doi:10.1021/jm960455s (Bristol-Myers Squibb Pharmaceutical Research Institute, 1997)
# Non-standard residues stand in square brackets, D forms with d. Residues, ends and D or L forms follow the SMILES beside them. *: point of attachment. Phe(4-guanidino) = N=C(N)Nc1ccc(C[CH](N)C(=O)O)cc1; Phe(4-F) = N[CH](Cc1ccc(F)cc1)C(=O)O; 2Nal = N[C@@H](Cc1ccc2ccccc2c1)C(=O)O; Benzoyl(4-Cl) = O=C(c1ccc(Cl)cc1)*; X5 = O=C(c1cc2ccccc2[nH]1)*; βAla = NCCC(=O)O
# Assays:
# [1] = Concentration of compound required to inhibit agonist (SFLLRNP-NH2, at 3 uM) induced platelet aggregation by 50%
# [2] = Effective concentration for stimulation of platelet aggregation
# [3] = Concentration of compound required to inhibit agonist (SFLLRNP-NH2, at 3 uM) induced platelet aggregation by 50%; remark: listed apart in the source
EC50 [2] [nM],Structure (SMILES),also measured
–,CC(=O)N(C(=O)C=Cc1cccc(Cl)c1)C(Cc1ccc(F)cc1)C(=O)NC(Cc1ccc(N=C(N)N)cc1)C(=O)NC(CC(C)C)C(=O)NC(CCCNC(=N)N)C(N)=O (stereo not drawn) [2-[2-[2-{Acetyl-[(E)-3-(3-chloro-phenyl)-acryloyl]-amino}-3-(4-fluoro-phenyl)-propionylamino]-3-(4-guanidino-phenyl)-propionylamino]-4-methyl-pentanoic acid (1-carbamoyl-4-guanidino-butyl)-amide],IC50 [1]: 80 nM
1800,CC(C)CC(NC(=O)C(Cc1ccc(N=C(N)N)cc1)NC(=O)C(Cc1ccc(F)cc1)NC(=O)c1cc2ccccc2[nH]1)C(=O)NC(CCCNC(=N)N)C(N)=O (stereo not drawn) [1H-Indole-2-carboxylic acid [1-[1-[1-(1-carbamoyl-4-guanidino-butylcarbamoyl)-3-methyl-butylcarbamoyl]-2-(4-guanidino-phenyl)-ethylcarbamoyl]-2-(4-fluoro-phenyl)-ethyl]-amide] (X5-[Phe(4-F)][Phe(4-guanidino)]LR-NH2; configuration not given here),–
720,COc1ccc(C[C@H](NC(=O)[C@@H](N)CO)C(=O)N[C@@H](CC(C)C)C(=O)N[C@@H](CC(C)C)C(=O)N[C@@H](CCCN=C(N)N)C(N)=O)cc1,–
3700,CC(C)CC(NC(=O)C(Cc1ccc(N=C(N)N)cc1)NC(=O)C(Cc1ccc(F)cc1)NC(=O)c1ccc(Cl)cc1)C(=O)NC(CCCNC(=N)N)C(N)=O (stereo not drawn) [N-[1-[1-[1-(1-Carbamoyl-4-guanidino-butylcarbamoyl)-3-methyl-butylcarbamoyl]-2-(4-guanidino-phenyl)-ethylcarbamoyl]-2-(4-fluoro-phenyl)-ethyl]-4-chloro-benzamide] ({Benzoyl(4-Cl)}-[Phe(4-F)][Phe(4-guanidino)]LR-NH2; configuration not given here),–
–,CC(=O)N(C(=O)c1ccc(-c2ccccc2)cc1)C(Cc1ccc(F)cc1)C(=O)NC(Cc1ccc(N=C(N)N)cc1)C(=O)NC(CC(C)C)C(=O)NC(CCCNC(=N)N)C(N)=O (stereo not drawn) [Biphenyl-4-carboxylic acid acetyl-[1-[1-[1-(1-carbamoyl-4-guanidino-butylcarbamoyl)-3-methyl-butylcarbamoyl]-2-(4-guanidino-phenyl)-ethylcarbamoyl]-2-(4-fluoro-phenyl)-ethyl]-amide],IC50 [3]: 430 nM
60000,CC(=O)N(C(=O)C=Cc1ccccc1)C(Cc1ccc(F)cc1)C(=O)NC(Cc1ccc(N)cc1)C(=O)NC(CC(C)C)C(=O)NC(CCCNC(=N)N)C(N)=O (stereo not drawn) [2-[2-[2-{Acetyl-[(E)-(3-phenyl-acryloyl)]-amino}-3-(4-fluoro-phenyl)-propionylamino]-3-(4-amino-phenyl)-propionylamino]-4-methyl-pentanoic acid (1-carbamoyl-4-guanidino-butyl)-amide],–
270,CC(=O)NCCC(=O)N[C@@H](Cc1ccc(F)cc1)C(=O)N[C@@H](Cc1ccc2ccccc2c1)C(=O)N[C@@H](CC(C)C)C(=O)N[C@@H](CCCN=C(N)N)C(N)=O [2-{(R)-2-[2-(3-Acetylamino-propionylamino)-3-(4-fluoro-phenyl)-propionylamino]-3-naphthalen-2-yl-propionylamino}-4-methyl-pentanoic acid (1-carbamoyl-4-guanidino-butyl)-amide] (Ac-[βAla][Phe(4-F)][2Nal]LR-NH2),–
67000,CC(=O)N(C(=O)C=Cc1ccccc1)C(Cc1ccc(F)cc1)C(=O)NC(=O)NCCCC(NC(=O)C(CC(C)C)NC(=O)C(N)CCCNC(=N)N)C(=O)O (stereo not drawn) [5-{3-[2-{Acetyl-[(E)-(3-phenyl-acryloyl)]-amino}-3-(4-fluoro-phenyl)-propionyl]-ureido}-2-[2-(2-amino-5-guanidino-pentanoylamino)-4-methyl-pentanoylamino]-pentanoic acid],–
